Holding throughout (type): in vivo, C57BL/6 mice
Experiment [1] deals with IL-6. The experiment can be described thus: ELISA of IL-6 in supernatants of tongue homogenates. For orientation: ELISA stands for enzyme-linked immunosorbent assay.
Experiment [2] deals with TNF-α. The experiment in a line: ELISA of TNF-α in supernatants of tongue homogenates. The following applies: vs infected mice treated with saline solution.
For experiment [3], the system named is IL-1β. The experiment can be described thus: ELISA of IL-1β in supernatants of tongue homogenates. Conditions: vs infected mice treated with saline solution.

Structures are written as SMILES.

With `OC(Cn1cncn1)(Cn1cncn1)c1ccc(F)cc1F` [FLZ, fluconazole], the “production of IL-6” value in experiment [1] (3 days after infection, otherwise unchanged compared to the untreated mice) is on record as “exception”; in experiment [1] (6 days post-infection, vs infected mice treated with saline solution) it was “significant decrease”. In addition, the “production of TNF-α” value in experiment [2] (3 days after infection) is recorded as “considerable inhibition”; in experiment [2] (6 days post-infection) it was “significant decrease”. For the same molecule, the “production of IL-1β” value in experiment [3] (3 days after infection) is reported as “considerable inhibition”; in experiment [3] (6 days post-infection) it was “significant decrease”.

Values taken from patent US20220047656A1, “SACCHAROMYCES CEREVISIAE YEAST STRAIN FOR THE TREATMENT AND/OR PREVENTION OF OROPHARYNGEAL CANDIDIASIS” (LESAFFRE ET COMPAGNIE, priority 2018, published 2022).
